Experiment: Solubility of MGBG salts
Format: physicochemical
Excerpt: It is necessary to administer MGBG in a salt form to assure solubility of drug in the administration of fluid such as 5% (w/v) dextrose in water. […] Available MGBG-salt complexes include but are not limited to the dihydrochloride (NSC-32946) and the diacetate (NSC-30689).

SMILES: CC(C=NNC(=N)N)=NNC(=N)N
- solubility relative to dihydrochloride or diacetate salts: not as soluble as the dihydrochloride or diacetate salts

From patent US4520031A, “Method for reducing toxic effects of methyl-glyoxal bis-guanylhydrazone” (priority 1982, dated 1985)
